Reference: ChEMBL document CHEMBL3297689, “Phenylalanine-Based Inactivator of AKT Kinase: Design, Synthesis, and Biological Evaluation” (ACS Med Chem Lett, 2014)
Active and inactive are the calls of the source. The calls are words filed in the database; no cut-off is given here.

Legend:
[1] = Growth inhibition of human HCT116 cells after 72 hrs by coulter counter method; format: functional, cell-based; conditions: HCT-116, 72 h
NCI-H460 = assay: Growth inhibition of human NCI-H460 cells after 72 hrs by coulter counter method; format: functional, cell-based; conditions: NCI-H460, 72 h
[2] = biological target: T1, RAC-alpha serine/threonine-protein kinase (Homo sapiens, UniProt P31749); assay: Inhibition of AKT1 (unknown origin) after 1 hr by Z'-LYTE kinase assay in presence of 75 uM ATP
T1 sequence (P31749 whole entry): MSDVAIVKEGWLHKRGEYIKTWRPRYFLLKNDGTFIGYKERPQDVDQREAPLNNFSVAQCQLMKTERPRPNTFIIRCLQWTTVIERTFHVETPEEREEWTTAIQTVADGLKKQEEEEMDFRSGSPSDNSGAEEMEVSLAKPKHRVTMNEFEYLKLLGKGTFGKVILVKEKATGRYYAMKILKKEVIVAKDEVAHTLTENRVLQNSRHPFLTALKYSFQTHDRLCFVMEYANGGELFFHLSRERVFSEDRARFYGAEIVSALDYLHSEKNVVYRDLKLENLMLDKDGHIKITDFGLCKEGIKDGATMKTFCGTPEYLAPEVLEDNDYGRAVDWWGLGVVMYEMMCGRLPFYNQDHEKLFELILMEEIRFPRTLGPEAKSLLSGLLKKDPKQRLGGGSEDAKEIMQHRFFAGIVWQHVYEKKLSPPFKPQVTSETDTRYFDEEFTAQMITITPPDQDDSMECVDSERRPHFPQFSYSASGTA

[3] = biological target: T1, RAC-alpha serine/threonine-protein kinase; assay: Binding affinity to AKT1 (unknown origin) assessed as covalent modification at Cys310 residue by mass spectrometry

| IC50 [2] | Structure (SMILES) | other results |
| --- | --- | --- |
| – | CCn1c(-c2nonc2N)nc2c(C#CC(C)(C)O)ncc(OC[C@H]3CCCNC3)c21 [GSK-690693] | IC50 [1]: 8.2 µM; IC50 (NCI-H460): 5.4 µM |
| > 100 µM | CC(C)(C)OC(=O)NN(Cc1ccccc1)C(=O)CCl | – |
| > 100 µM | CC(C)(C)OC(=O)N[C@@H](Cc1ccccc1)C(=O)NCCBr | – |
| 4.68 µM | CC(C)(C)OC(=O)NN(Cc1ccccc1)C(=O)CN1C(=O)C=CC1=O | – |
| – | C=CC(=O)[C@H](Cc1ccccc1)NC(=O)OCc1cn(CCCCCCNC(=S)Nc2ccc(-c3c4ccc(=O)cc-4oc4cc(O)ccc34)c(C(=O)O)c2)nn1 | Activity [3]: Active |
| 4.48 µM | CC(C)(C)OC(=O)N[C@@H](Cc1ccccc1)C(=O)NCCN1C(=O)C=CC1=O | – |
| > 100 µM | CCC(=O)[C@H](Cc1ccccc1)NC(=O)OC(C)(C)C | IC50 [1]: > 100 µM; IC50 (NCI-H460): > 100 µM |
| > 100 µM | CC(C)(C)OC(=O)N[C@@H](Cc1ccccc1)C(=O)NCCCl | – |
